Experimental findings from patent US20160075689A1, “POLYMERASE, ENDONUCLEASE, AND HELICASE INHIBITORS AND METHODS OF USING THEREOF” (THE BOARD OF TRUSTEES OF THE UNIVERSITY OF ARKANSAS, priority 2013, published 2016) are described below.

The target of this assay is T1, EndoG (Homo sapiens, UniProt Q14249).
T1 sequence (Q14249 49-297): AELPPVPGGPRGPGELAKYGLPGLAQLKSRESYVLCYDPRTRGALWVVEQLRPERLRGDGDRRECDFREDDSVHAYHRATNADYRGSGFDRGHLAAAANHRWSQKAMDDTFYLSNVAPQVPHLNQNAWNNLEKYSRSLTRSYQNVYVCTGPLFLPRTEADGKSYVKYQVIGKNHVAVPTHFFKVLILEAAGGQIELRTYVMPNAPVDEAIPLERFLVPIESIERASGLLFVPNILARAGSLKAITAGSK
The assay is described as follows: Plasmid incision assay. It counts as biochemical. To be noted: agarose gel, FIG. 9. Here is the method:
A reaction mixture was prepared containing 0.5 μg pECFP plasmid DNA, 2 mM CaCl2, 5 mM MgCl2, 10 mM Tris-HCl, pH 7.4, 0.5 mM dithiothreitol. The test compound [50 ng in DMSO (1 μl)] was added. Recombinant EndoG was then added to the final concentration of 200 ng/ml and the reaction was incubated for 1 h at 37° C. The reaction was terminated by adding 2 μl of 10 mM Tris-HCl, pH 7.4, 1% SDS, 25 mM EDTA, 7.2 mM bromophenol blue. The samples were run in 1% agarose gel in Tris-acetate-EDTA buffer (40 mM Tris, 20 mM acetic acid, 1 mM EDTA, pH 8), at 7 V/cm for 35 min, and DNA was stained with ethidium bromide. An EagleEye scanning densitometer (Stratagene, La Jolla, Calif.) was utilized to quantify the relative amount of endonuclease-treated plasmid DNA present in a covalently-closed circular (supercoiled) DNA, open circular DNA, or linear DNA, or in a digested form.

With `COc1ccc2c(c1)c(C=C1C(=O)NC(=S)NC1=O)cn2C(=O)c1ccc2ccccc2c1` [PNR-3-82], the “protection of supercoiled plasmid DNA from degradation by EndoG” value is reported as “significantly protected the plasmid DNA from degradation”.
